Converted amounts (≈) assume the structure as drawn.
Tests used:
[1] = tested on: cyprid larvae of the barnacle Balanus albicostatus; design: method as in Chen et al., [2011]; settings: ref Chen et al., [2011]; cited from earlier work
[2] = tested on: mouse melanoma (B16 2F2) cell line; design: method as in Hata et al., [2002]; settings: ref Hata et al., [2002], read-out: anticancer effect IC50, B16 2F2; cited from earlier work
[3] = tested on: T47D (human breast cancer); design: method as in Boryczka et al. ([2013a], [b]); settings: Neg = negative in the concentration used, ref Boryczka et al. ([2013a], [b]); cited from earlier work
[4] = tested on: HL-60 (human promyelocytic leukemia); experiment: Antiproliferative assay in vitro (MTT), HL-60; assay type: cell-based; settings: for IC50: Homo sapiens, HL-60 cancer cell line, 96 h exposure, read-out: Cytotoxic activity IC50, HL-60
Procedure: (§1) The tested cell lines were obtained from the American Type Culture Collection (Rockville, Maryland, USA) and maintained at the Cell Culture Collection of the Institute of Immunology and Experimental Therapy (Wrocław, Poland). The cells were seeded in 96-well plates (Sarstedt, USA) at a density of 10^4 cells per well in 100 µL of culture medium overnight. […] The normal mouse fibroblasts BALB3T3 was cultured in Dulbecco’s modified Eagle’s medium (Sigma-Aldrich, Chemie GmbH, Steinheim, Germany) supplemented with 2 mM glutamine (Sigma-Aldrich, Chemie GmbH, Steinheim, Germany) and 10 % fetal calf serum FBS (Sigma-Aldrich, Chemie GmbH, Steinheim, Germany). The all culture media were supplemented with streptomycin (100 µg/mL) and penicillin (100 U/mL) (both antibiotics from Polfa, Tarchomin, Poland). The cell cultures were maintained at 37 °C in humid atmosphere saturated with 5 % CO2. The MTT assay was used for the cytotoxicity screening against leukemia cells growing in suspension culture. This assay was performed after 96 h of the leukemia cells to varying concentrations (ranging from 1 to 100 µg/mL) of the tested substances. The derivatives of betulin were dissolved in 10 % DMSO to concentration of 1 mg/mL, and next diluted in culture medium to reach the required concentrations. […] During the last 3–4 h of incubation 20 µl of MTT solution were added to each well (MTT: 3-(4,5-dimethylthiazol-2-yl)-2,5-diphenyl tetrazolium bromide; stock solution: 5 mg/mL). The pale yellow MTT is reduced to a navy blue formazan in the mitochondria of living cells. At the end of incubation time, 80 µL of the lysing mixture was added to each well (lysing mixture: 225 mL dimethylformamide, 67.5 g sodium dodecyl sulfate and 275 mL of distilled water). After 24 h are formed the crystals of formazan, which are insoluble in aqueous solutions. The formazan crystals had been dissolved. The optical densities were read on a Multiskan RC photometer at 570 nm wavelength. The compounds in given concentration were examined in triplicates in each experiment which was repeated 3–5 times. The results of cytotoxic activity in vitro were expressed as an IC50 in µg/mL.

[5] = tested on: BALB3T3 normal mouse fibroblasts; design: method as in Boryczka et al. ([2013a], [b]); settings: murine BALB3T3 normal fibroblasts; Neg = negative in the concentration used; ref Boryczka et al. ([2013a], [b]); cited from earlier work
[6] = tested on: P388 (mouse leukemia); design: method as in Boryczka et al. ([2013a], [b]); settings: murine P388; Neg = negative in the concentration used; ref Boryczka et al. ([2013a], [b]); cited from earlier work
[7] = tested on: CCRF/CEM (human leukemia); design: method as in Boryczka et al. ([2013a], [b]); settings: Neg = negative in the concentration used, ref Boryczka et al. ([2013a], [b]); cited from earlier work
[8] = tested on: SW707 (human colorectal); design: method as in Boryczka et al. ([2013a], [b]); settings: Neg = negative in the concentration used, ref Boryczka et al. ([2013a], [b]); cited from earlier work
[9] = tested on: CCRF/CEM (human leukemia); experiment: Antiproliferative assay in vitro (MTT), CCRF/CEM; assay type: cell-based; settings: human CCRF/CEM; 96 h exposure; 1 to 100 µg/mL; Neg = negative in the concentration used; read-out: Cytotoxic activity IC50, CCRF/CEM
Procedure: as §1

[10] = tested on: P388 (mouse leukemia); experiment: Antiproliferative assay in vitro (MTT), P388; assay type: cell-based; settings: Mus musculus; murine P388; 96 h exposure; 1 to 100 µg/mL; Neg = negative in the concentration used; read-out: Cytotoxic activity IC50, P388
Procedure: as §1

[11] = Antiproliferative assay in vitro (SRB), BALB3T3; assay type: cell-based, mouse; settings: mouse; murine BALB3T3 normal fibroblasts; 96 h exposure; 1 to 100 µg/mL; Neg = negative in the concentration used; read-out: Cytotoxic activity IC50, BALB3T3
Procedure: (§2) The tested cell lines were obtained from the American Type Culture Collection (Rockville, Maryland, USA) and maintained at the Cell Culture Collection of the Institute of Immunology and Experimental Therapy (Wrocław, Poland). The cells were seeded in 96-well plates (Sarstedt, USA) at a density of 10^4 cells per well in 100 µL of culture medium overnight. […] The normal mouse fibroblasts BALB3T3 was cultured in Dulbecco’s modified Eagle’s medium (Sigma-Aldrich, Chemie GmbH, Steinheim, Germany) supplemented with 2 mM glutamine (Sigma-Aldrich, Chemie GmbH, Steinheim, Germany) and 10 % fetal calf serum FBS (Sigma-Aldrich, Chemie GmbH, Steinheim, Germany). The all culture media were supplemented with streptomycin (100 µg/mL) and penicillin (100 U/mL) (both antibiotics from Polfa, Tarchomin, Poland). The cell cultures were maintained at 37 °C in humid atmosphere saturated with 5 % CO2. This technique as first was described by Skehan et al. in [1990]. The SRB assay was performed after 96 h exposure of the cultured cells to varying concentrations (ranging from 1 to 100 µg/mL) of the tested substances. The reported derivatives as well as betulin 1 were dissolved in 10 % dimethyl sulfoxide (DMSO) to concentration of 1 mg/mL, and next diluted in culture medium to reach the required concentrations. […] The cells fastened to the plastic were fixed mildly layering cold 50 % TCA (trichloroacetic acid, Aldrich-Chemie, Germany) on the top of the culture medium in each well. The plates were incubated at 4 °C for 1 h and then washed five times with tap water. The cells fixed with TCA were stained with 0.4 % sulforhodamine B (SRB, Sigma, Germany) dissolved in 1 % acetic acid (POCH, Gliwice, Poland) for 30 min. The unbound dye was removed by rinsing four times with 1 % acetic acid. The protein-bound dye was extracted with 10 mM unbuffered tris base (POCH, Gliwice, Poland) and then determined the optical density at 540 nm in a computer-interfaced, 96-well microtiter plate reader Multiscan RC photometer (Labsystems, Helsinki, Finland). The compounds in given concentration were examined in triplicates in each experiment which was repeated 3–5 times. The results of cytotoxic activity in vitro were expressed as an IC50 in µg/mL.

[12] = tested on: SW707 (human colorectal); experiment: Antiproliferative assay in vitro (SRB), SW707; assay type: cell-based; settings: human SW707; 96 h exposure; 1 to 100 µg/mL; Neg = negative in the concentration used; read-out: Cytotoxic activity IC50, SW707
Procedure: as §2

[13] = tested on: T47D (human breast cancer); experiment: Antiproliferative assay in vitro (SRB), T47D; assay type: cell-based; settings: human T47D; 96 h exposure; 1 to 100 µg/mL; Neg = negative in the concentration used; read-out: Cytotoxic activity IC50, T47D
Procedure: as §2

SMILES	antifouling activity EC50 [1] [µg/mL]	IC50 [2] [µM]	Cytotoxic activity IC50, T47D [3]	IC50 [4] [µg/mL]	fold potent than betulin 1 against HL-60 ([4]; relative to betulin 1, HL-60) [fold]	Cytotoxic activity IC50, BALB3T3 [5]	Cytotoxic activity IC50, P388 [6]	Cytotoxic activity IC50, CCRF/CEM [7] [µg/mL]	Cytotoxic activity IC50, SW707 [8]	IC50 [9] [µg/mL]	melting point [°C]	IC50 [10] [µg/mL]	IC50 at 96 h [11] [µg/mL]	IC50 [12] [µg/mL]	IC50 [13] [µg/mL]
C=C(C)[C@@H]1CC[C@]2(CO)CC[C@]3(C)[C@H](CC[C@@H]4[C@@]5(C)CCC(=O)C(C)(C)[C@@H]5CC[C@]43C)[C@@H]12 [Betulone 2, lup-20(29)-en-28-ol-3-one]	8.73	29.3	–	–	–	–	–	–	–	–	–	–	–	–	–
C#CC(=O)OC[C@]12CC[C@@H](C(=C)C)C1C1CCC3[C@@]4(C)CC[C@H](O)C(C)(C)C4CC[C@@]3(C)[C@]1(C)CC2 (stereo partly drawn) [Compound 5, 28-O-propynoylbetulin]	–	–	9.1 ± 1.9 µg/mL	0.3 ± 0.004 (≈ 0.606 µM)	24	0.3 ± 0.05 µg/mL	0.4 ± 0.1 µg/mL	0.02 ± 0.001	14.9 ± 3.3 µg/mL	–	–	–	–	–	–
C=C(C)[C@@H]1CC[C@]2(COC(=O)CC)CC[C@]3(C)C(CCC4[C@@]5(C)CC[C@H](O)C(C)(C)C5CC[C@]43C)C12 (stereo partly drawn) [Compound 3]	–	–	12.1 ± 4.4 µg/mL	29.3 ± 3.4 (≈ 58.7 µM)	–	32.3 ± 23.0 µg/mL	3.3 ± 0.8 µg/mL	8.1 ± 0.9	29.2 ± 24.4 µg/mL	–	–	–	–	–	–
C=C(C)[C@@H]1CC[C@]2(COC(=O)C#Cc3ccccc3)CC[C@]3(C)C(CCC4[C@@]5(C)CC[C@H](O)C(C)(C)C5CC[C@]43C)C12 (stereo partly drawn) [Compound 7]	–	–	Neg	–	–	Neg	Neg	49.0 ± 9.8	Neg	–	–	–	–	–	–
C=CC(=O)OC[C@]12CC[C@@H](C(=C)C)C1C1CCC3[C@@]4(C)CC[C@H](O)C(C)(C)C4CC[C@@]3(C)[C@]1(C)CC2 (stereo partly drawn) [Compound 4, 28-O-(2-Propenoyl)betulin]	–	–	–	18.8 ± 4.8 (≈ 37.8 µM)	–	–	–	–	–	19.6 ± 9.5 (≈ 39.5 µM)	117 to 121	9.9 ± 5.9 (≈ 19.9 µM)	24.3 ± 6.9 (≈ 48.9 µM)	29.6 ± 4.2 (≈ 59.6 µM)	7.1 ± 2.7 (≈ 14.3 µM)
